Usually IC50 stands for the midpoint of a concentration-inhibition curve.

The results in this text go back to patent publication US6469013B2, “Therapeutic compounds” (Parker Hughes Institute, priority 1998, dated 2002).

In one data set the test system is C57BL/6 males. The experiment in a line: Splenocyte populations after in vivo treatment (FACS). Also noted: species or system mouse. Particulars: 130 mg/kg for 10 days. The procedure:
All Abs were purchased from Pharmingen, San Diego, Calif. Stained splenocytes were analyzed by FACS Calibur, as described above.

A further data set concerns NOD females. The experiment in a line: Spontaneous diabetes in NOD females (incidence, IPGTT, insulitis). It is filed as in vivo, mouse. As to the method: Mice were monitored for diabetes development by testing blood glucose from 10 wk of age by One Touch Profile diabetes tracking system, as described above.
Intraperitoneal glucose tolerance test (IPGTI) was performed in the group of non-diabetic WHI-P131-treated and vehicle-treated control NOD females on the end of experimental period (25 wk of age of NOD mice). Mice were fasted for 10 hours, and the glucose solution (1.5 g/kg body weight) was injected i.p. Before and after injection of glucose, blood samples were taken and blood glucose levels were measured (as described above) at 0, 30, 60 and 120 min time points.
The group of control and WHI-P131-treated non-diabetic NOD females was sacrificed at the end of experimental period, at 25 wksof age, and characteristic histopathologic lesion of islets (insulitis) was evaluated in each mouse scoring at least 25 islets per mouse. Briefly, pancreas was removed, fixed in 10% formalin, parafin embedded, cut and stained with hematoxylin and eosin for light microscopic examinations.

The target in a further data set is T1, human JAK3 (Homo sapiens, UniProt P52333).
T1 sequence (P52333 1-1124): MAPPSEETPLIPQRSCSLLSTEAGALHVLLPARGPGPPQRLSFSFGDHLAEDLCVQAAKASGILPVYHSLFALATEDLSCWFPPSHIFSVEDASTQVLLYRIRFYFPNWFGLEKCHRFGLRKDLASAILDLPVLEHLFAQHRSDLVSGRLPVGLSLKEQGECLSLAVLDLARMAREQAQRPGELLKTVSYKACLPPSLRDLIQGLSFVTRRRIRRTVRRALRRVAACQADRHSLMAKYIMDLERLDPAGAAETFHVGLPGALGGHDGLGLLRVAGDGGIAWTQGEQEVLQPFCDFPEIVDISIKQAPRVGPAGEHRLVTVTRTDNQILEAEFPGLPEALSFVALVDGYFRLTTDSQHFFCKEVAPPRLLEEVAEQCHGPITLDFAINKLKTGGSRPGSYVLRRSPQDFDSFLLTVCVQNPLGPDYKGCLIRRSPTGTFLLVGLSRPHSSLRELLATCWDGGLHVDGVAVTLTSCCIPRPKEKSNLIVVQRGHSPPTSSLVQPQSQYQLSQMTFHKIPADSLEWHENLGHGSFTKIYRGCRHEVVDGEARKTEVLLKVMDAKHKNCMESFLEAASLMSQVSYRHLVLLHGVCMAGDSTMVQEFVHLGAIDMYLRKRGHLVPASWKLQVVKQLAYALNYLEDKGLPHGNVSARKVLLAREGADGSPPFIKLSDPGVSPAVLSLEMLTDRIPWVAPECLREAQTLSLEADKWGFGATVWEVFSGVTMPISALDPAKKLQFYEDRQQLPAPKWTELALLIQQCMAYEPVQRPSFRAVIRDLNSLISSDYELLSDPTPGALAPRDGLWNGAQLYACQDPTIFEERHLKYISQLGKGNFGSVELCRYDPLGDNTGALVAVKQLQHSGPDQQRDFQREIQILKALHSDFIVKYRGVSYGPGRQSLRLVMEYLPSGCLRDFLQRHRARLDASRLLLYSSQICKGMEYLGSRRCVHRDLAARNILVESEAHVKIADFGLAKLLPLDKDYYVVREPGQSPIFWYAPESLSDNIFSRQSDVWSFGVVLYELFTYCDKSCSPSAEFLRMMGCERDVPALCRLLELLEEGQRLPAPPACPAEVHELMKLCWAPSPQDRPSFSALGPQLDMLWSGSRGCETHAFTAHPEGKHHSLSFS
The experiment in a line: JAK3 immune complex kinase assay (JAK3 immunoprecipitated from KL2 EBV-transformed B cell line). It is filed as biochemical. Conditions: JAK3 kinase assay, KL2 cell-derived human JAK3; read-out: IC50. As to the method: In JAK3 immune complex kinase assays (17, 22), KL-2 EBV-transformed human lymphoblastoid B cells (native JAK3 kinase assays) or insect ovary cells (recombinant JAK3 kinase assays) were lysed with NP-40 lysis buffer (50 mM Tris, pH 8, 150 mM NaCl, 5 mM EDTA, 1% NP-40, 100 μM sodium orthovanadate, 100 μM sodium molybdate, 8 μg/ml aprotinin, 5 μg/ml leupeptin, and 500 μM PMSF) and centrifuged 10 min at 13000× g to remove insoluble material. Samples were immunoprecipitated with antisera prepared against JAK3. The antisera were diluted and immune complexes collected by incubation with 15 μl protein A Sepharose. After 4 washes with NP-40 lysis buffer, the protein A Sepharose beads were washed once in kinase buffer (20 mM MOPS, pH7, 10 mM MgCl2) and resuspended in the same buffer. Reactions were initiated by the addition of 25 μCi [γ^32P] ATP (5000 Ci/mMole) and unlabeled ATP to a final concentration of 5 μM. Reactions were terminated by boiling for 4 min in SDS sample buffer. Samples were run on 9.5% SDS polyacrylamide gels and labeled proteins were detected by autoradiography. Following electrophoresis, kinase gels were dried onto Whatman 3M filter paper and subjected to phosphorimaging on a Molecular Imager (Bio-Rad, Hercules, Calif.) as well as autoradiography on film. For each drug concentration, a kinase activity index (KA) was determined by comparing the kinase activity in phosphorimager units (PIU) to that of the baseline sample. In some experiments, cold kinase assays were performed, as described by (Uckun, F. M., et al., Clin. Can. Res. 4: 901-912, 1998).
We first used immune complex kinase assays to compare the effects of the synthesized dimethoxyquinazoline compounds on the enzymatic activity of human JAK3 immunoprecipitated from the KL2 EBV-transformed human lymphoblastoid B cell line.

Turning to `COc1cc2ncnc(Nc3ccc(O)cc3)c2cc1OC` [WHI-P131, 4-(4′-hydroxyl-phenyl)-amino-6,7-dimethoxyquinazoline], the “percentages of CD3+, CD4+ and CD8+ T-cells and CD19+ B-cells vs vehicle” value in the data set with C57BL/6 males (data not shown) is given as “no differences”. In addition, in the data set on C57BL/6 males (controls 20.5±0.6), the “number of CD4+ T-cells” value is 16.8±1.2 ×10^6. Further, the “number of CD3+ splenocytes” value in the data set on C57BL/6 males (controls 46.9±2.6) is 37.7±3.2 ×10^6. The “number of B-cells” value in the data set on C57BL/6 males (controls 78.2±6.1) was 57.1±5.3 ×10^6. The “Total number of splenocytes” value in the data set with C57BL/6 males (vehicle 154±8.5) was 119±9.4 ×10^6. For the same compound, the diabetes incidence worked out at 56% in the data set on NOD females (20 mg/kg daily, till 18 wks of age); 18% in the data set with NOD females (50 mg/kg daily, 5 to 25 wks of age, at 25 wks); 9% with NOD females (100 mg/kg, 'the first treatment', at 25 wks of age, p=0.007); 18% with NOD females (100 mg/kg, 'the later one', at 25 wks of age, p=0.025); 83% in the data set with NOD females (100 mg/kg, short course wks 5 to 9, by 25 wks of age). In addition, in the data set on NOD females (50 mg/kg daily from 5 wks, control 13 wks), the “age at which mice started to develop diabetes” value stood at 22 wks. The “age at which diabetes started” value in the data set on NOD females (100 mg/kg, short course wks 5 to 9) was 10 wks. The Insulitis score is 0.86±0.12 with NOD females (100 mg/kg, treated from 5-25 wks of age, controls 1.43±0.15) and 1.42±0.24 in the data set on NOD females (100 mg/kg, treated from 10-25 wks of age). Besides, on human JAK3, the IC50 was determined as 9.1 µM.
